Experimental data as given in patent publication US12037324B2, “Biarylmethyl heterocycles” (Université de Montréal, priority 2016, dated 2024).
Read-outs that look alike come from different tables or passages of the source.

Tests used:
hAT1R [1] = target: T1, hAT1R (Homo sapiens, UniProt P30556); test: cell-based; conditions: section of the 42nd table ending at r951, example numbering restarts after the DiscoveRx section; read-out: β-arrestin2 EC50
T1 sequence (P30556 1-359): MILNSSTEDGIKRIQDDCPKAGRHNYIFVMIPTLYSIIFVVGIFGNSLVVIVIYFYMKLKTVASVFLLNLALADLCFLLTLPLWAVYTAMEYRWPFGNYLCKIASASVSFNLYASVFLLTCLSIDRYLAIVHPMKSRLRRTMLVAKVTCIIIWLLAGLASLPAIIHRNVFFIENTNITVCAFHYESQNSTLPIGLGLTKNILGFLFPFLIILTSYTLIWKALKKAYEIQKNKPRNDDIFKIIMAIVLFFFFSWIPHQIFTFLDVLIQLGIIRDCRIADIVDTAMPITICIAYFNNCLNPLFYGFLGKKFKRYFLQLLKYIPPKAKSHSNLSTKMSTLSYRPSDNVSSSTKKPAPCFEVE

hAT1R [2] = target: T1, hAT1R; test: cell-based; conditions: agonist mode; for EC50: read-out: BRET P63 EC50
hAT1R [3] = target: T1, hAT1R; test: BRET Gq biosensor assay, agonist response, HEK293 cells; assay type: cell-based; conditions: section of the 42nd table directly before the BRET P63 section
In short: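 HEK293 cells co-transfected with signal-peptide-optimized hAT1R plus Gαq-Rluc, Gβ1 and GFP-Gγ1, assayed 48 h later in Tyrode's buffer pH 7.4. Coelenterazine (2 μM final) added, then compound; BRET2 (515/410 nm) read after 5 min at room temperature. EC50 by 4-parameter fit, normalized to unstimulated (0%) and maximal AngII (100%).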

AGTR1 = target: T2, AGTR1 (Homo sapiens, UniProt P30556); test: DiscoveRx β-arrestin2 recruitment assay (enzyme complementation, Pathunter CHO-K1 AGTR1 β-arrestin cell line); assay type: cell-based
T2 construct: host or cells: Pathunter CHO-K1 AGTR1 β-arrestin cell line (CHO-K1)
T2 sequence (P30556 1-359): T1 sequence (P30556 1-359)
In short: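 CHO-K1 cells expressing AGTR1 with β-arrestin2 enzyme-complementation reporter, plated 14-16 h ahead in 1% serum medium, then exposed to compounds for 90 min at 37° C. Chemiluminescence read after 1 h detection. EC50 (agonist) or IC50 (antagonist) from 4-parameter logistic fit; activity as percentage of All maximal effect.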

hAT1R [4] = target: T1, hAT1R; test: BRET β-arrestin2 biosensor assay, higher receptor expression (hAT1R 5 ng/well), HEK293 cells; assay type: cell-based; conditions: for EC50: High AT1R Expression
[5] = DiscoveRx β-arrestin2 recruitment
[6] = DiscoveRx β-arrestin2 recruitment, maximal response

| Structure (SMILES) | EC50 (hAT1R [1]) [nM] | BRET P63 Ymax (hAT1R [2]) [%] | EC50 (hAT1R [2]) [nM] | EC50 (hAT1R [3]) [nM] | EC50 (AGTR1; [5]) [nM] | DiscoveRx β-arrestin2 Ymax (%) (AGTR1; [6]) | DiscoveRx β-arrestin2 Ymax (%) (AGTR1; [5]) | BRET β-Arrestin2 High AT1R Expression Ymax (%) (hAT1R [4]) | EC50 (hAT1R [4]) [nM] | EC50 (AGTR1) [nM] |
| --- | --- | --- | --- | --- | --- | --- | --- | --- | --- | --- |
| CCc1nc2c(C)cc(C)nc2n1Cc1ccc(-c2cc(-c3ccccc3)ccc2-c2nn[nH]n2)cc1F [Example 264, 2-ethyl-3-((3-fluoro-6′-(2H-tetrazol-5-yl)-[1,1′:3′,1″-terphenyl]-4-yl)methyl)-5,7-dimethyl-3H-imidazo[4,5-b]pyridine] | 12.9 | 15.7 | 7.4 | 42.8 | 19.2 | 52.9 | – | – | – | – |
| CCc1nc2c(C)cc(C)nc2n1Cc1ccc(-c2cc(-c3ccccc3)ccc2-c2nn[nH]n2)c(F)c1 [Example 265] | 18.9 | 17.9 | 7 | 29.2 | 30.1 | 53.4 | – | – | – | – |
| CCc1nc2c(C)cc(C)nc2n1Cc1ccc(-c2cc(-c3cccc(C)c3)ccc2-c2nn[nH]n2)cc1F [Example 266] | 5.7 | 19.1 | 5.7 | 26.1 | 64.3 | 75.8 | – | – | – | – |
| CCc1nc2c(C)cc(C)nc2n1Cc1ccc(-c2cc(-c3cccc(C)c3)ccc2-c2nn[nH]n2)c(F)c1 [Example 267] | 8.2 | 17.7 | 7.5 | 36.6 | 9.8 | 62.5 | – | – | – | – |
| CCOc1nc2cccc(C(=O)O)c2n1Cc1ccc(-c2cc(-c3cc(C)ccn3)ccc2-c2noc(=O)[nH]2)cc1 [Example 299, 2-ethoxy-1-((5′-(4-methylpyridin-2-yl)-2′-(5-oxo-4,5-dihydro-1,2,4-oxadiazol-3-yl)-[1,1′-biphenyl]-4-yl)methyl)-1H-benzo[d]imidazole-7-carboxylic acid] | 4.7 | 31.7 | 4.9 | 21.3 | 7.7 | 83.0 | – | – | – | – |
| CCOc1nc2cccc(C(=O)O)c2n1Cc1ccc(-c2cc(-c3cc(OC(F)F)ccn3)ccc2-c2noc(=O)[nH]2)cc1 [Example 302] | 14.9 | 25.2 | 10.2 | 47.3 | 10.2 | 61.1 | – | – | – | – |
| CCOc1nc2cccc(C(=O)O)c2n1Cc1ccc(-c2cc(-c3ccccn3)ccc2-c2noc(=O)[nH]2)cc1 [Example 303] | 38.2 | 30.4 | 49.7 | 109 | 42.3 | 58.9 | – | – | – | – |
| CCOc1nc2cccc(C(=O)O)c2n1Cc1ccc(-c2cc(-c3cc(N(C)C)ccn3)ccc2-c2noc(=O)[nH]2)cc1 [Example 305] | 90.3 | 24.3 | 67 | 82.9 | 25.5 | 69.3 | – | – | – | – |
| CCOc1nc2cccc(C(=O)O)c2n1Cc1ccc(-c2cc(-c3cc(C)ccn3)ccc2-c2nn[nH]n2)cc1 [Example 309, 2-ethoxy-1-((5′-(4-methylpyridin-2-yl)-2′-(2H-tetrazol-5-yl)-[1,1′-biphenyl]-4-yl)methyl)-1H-benzo[d]imidazole-7-carboxylic acid] | 6.5 | 28.6 | 3.8 | 7.9 | 4.1 | 80.4 | – | – | – | – |
| CCOc1nc2cccc(C(=O)O)c2n1Cc1ccc(-c2cc(-c3cc(OC)ccn3)ccc2-c2nn[nH]n2)cc1 [Example 310, 2-ethoxy-1-((5′-(4-methoxypyridin-2-yl)-2′-(2H-tetrazol-5-yl)-[1,1′-biphenyl]-4-yl)methyl)-1H-benzo[d]imidazole-7-carboxylic acid] | 10.9 | 29.1 | 7.2 | 35.3 | 14.9 | 51.4 | – | – | – | – |
| CCOc1nc2cccc(C(=O)O)c2n1Cc1ccc(-c2cc(N3CCC[C@@H](C)C3)ccc2-c2nn[nH]n2)cc1 [Example 323] | 24.4 | – | > 10000 | > 100000 | 22.2 | 43.2 | – | – | – | – |
| CCOc1nc2cccc(C(=O)O)c2n1Cc1ccc(-c2cc(N3CCC[C@H](C)C3)ccc2-c2nn[nH]n2)cc1 [Example 324] | 63.2 | – | > 10000 | 42.3 | 17.4 | 55.2 | – | – | – | – |
| CCOc1nc2cccc(C(=O)O)c2n1Cc1ccc(-c2cc(-c3cnc4ccccc4c3)ccc2-c2nn[nH]n2)cc1 [Example 326, 2-ethoxy-1-((5′-(quinolin-3-yl)-2′-(2H-tetrazol-5-yl)-[1,1′-biphenyl]-4-yl)methyl)-1H-benzo[d]imidazole-7-carboxylic acid] | 24.7 | – | > 100000 | 16.2 | 9.5 | 45.9 | – | – | – | – |
| CCOc1nc2cccc(C(=O)O)c2n1Cc1ccc(-c2cc(-c3cnn(C(F)F)c3)ccc2-c2nn[nH]n2)cc1 [Example 327, 1-((5′-(1-(difluoromethyl)-1H-pyrazol-4-yl)-2′-(2H-tetrazol-5-yl)-[1,1′-biphenyl]-4-yl)methyl)-2-ethoxy-1H-benzo[d]imidazole-7-carboxylic acid] | 33 | 10.8 | 26.9 | 22.1 | 9.4 | 64.2 | – | – | – | – |
| CCOc1nc2cccc(C(=O)O)c2n1Cc1ccc(-c2cc(Oc3ccccc3)ccc2-c2nn[nH]n2)cc1 [Example 330, 2-Ethoxy-1-((5′-phenoxy-2′-(2H-tetrazol-5-yl)-[1,1′-biphenyl]-4-yl)methyl)-1H-benzo[d]imidazole-7-carboxylic acid] | 16.7 | – | > 10000 | 40.1 | 13.2 | 57.8 | – | – | – | – |
| CCOc1nc2cccc(C(=O)O)c2n1Cc1ccc(-c2cc(Oc3cccc(F)c3)ccc2-c2nn[nH]n2)cc1 [Example 331] | 8.4 | – | > 10000 | 26.4 | 13.2 | 44.5 | – | – | – | – |
| CCOc1nc2cccc(C(=O)O)c2n1Cc1ccc(-c2cc(Oc3cccc(OC)c3)ccc2-c2nn[nH]n2)cc1 [Example 332] | 12.1 | – | > 10000 | 106 | 24.1 | 30.6 | – | – | – | – |
| CCOc1nc2cccc(C(=O)O)c2n1Cc1ccc(-c2cc(Oc3cccnc3)ccc2-c2nn[nH]n2)cc1 [Example 333] | 11.3 | – | > 10000 | 17.8 | 10 | 67.8 | – | – | – | – |
| CCOc1nc2cccc(C(=O)O)c2n1Cc1ccc(-c2cc(Oc3ccccc3F)ccc2-c2nn[nH]n2)cc1 [Example 334] | 5.9 | 13.9 | 15.7 | 41.3 | 10.8 | 73.5 | – | – | – | – |
| CCOc1nc2cccc(C(=O)O)c2n1Cc1ccc(-c2cc(Oc3cccc(OC(F)(F)F)c3)ccc2-c2nn[nH]n2)cc1 [Example 335] | 6 | – | > 10000 | 721 | 36.1 | 22.7 | – | – | – | – |
| CCOc1nc2cccc(C(=O)O)c2n1Cc1ccc(-c2cc(Oc3ccc(F)cc3)ccc2-c2nn[nH]n2)cc1 [Example 336] | 12.4 | – | > 10000 | 47.2 | 16.4 | 61.4 | – | – | – | – |
| CCCCC(=O)N(Cc1ccc(-c2cc(N3CCC(C)CC3)ccc2-c2nn[nH]n2)cc1)[C@H](C(=O)O)C(C)C [Example 447] | – | – | > 100000 | 1380 | 295 | – | 35.0 | 63.1 | 336 | – |
| CCCCC(=O)N(Cc1ccc(-c2cc(N3CCCC(C)C3)ccc2-c2nn[nH]n2)cc1)[C@H](C(=O)O)C(C)C (some centres unmarked) [Example 448] | – | – | > 100000 | 856 | 161 | – | 20.8 | 58.5 | 599 | – |
| CCCCC(=O)N(Cc1ccc(-c2cc(Nc3ccccc3)ccc2-c2nn[nH]n2)cc1)[C@H](C(=O)O)C(C)C [Example 449] | – | – | > 100000 | > 100000 | 263 | – | 17.8 | 30.1 | 345 | – |
| CCCCC1=NC2(CCCC2)C(=O)N1Cc1ccc(-c2cc(Oc3cc(C)ccn3)ccc2-c2nn[nH]n2)cc1 [Example 455] | 182 | – | – | 93.8 | 46.8 | – | 14.4 | – | – | > 100000 |
